# Data from patent publication US20170362609A1, “[…] NANOPARTICLES FOR CODELIVERY OF WATER-INSOLUBLE SMALL MOLECULES AND RNAi” (Massachusetts Institute of Technology, priority 2016, published 2017).
# Tests used:
# 5′-GMP = 5′-GMP binding with platinum species by 1HNMR
# Experimental: The binding kinetics of 5′-GMP to each platinum species were determined by measuring the relative amounts of free and Pt-bound 5′-GMP at each time point, integrating the ratio of the ^1HNMR peaks at 8.5 ppm to 8.09 ppm.
# BCL-2 siRNA [1] = assay: siRNA binding with platinum species by MALDI-TOF-MS; conditions: 10-fold excess of platinum
# Experimental: The reaction mixture was placed in a 37° C. incubator and 10 μL of sample were removed at various time points to obtain MALDI-TOF-MS spectra (positive model).
# BCL-2 siRNA [2] = assay: Double-stranded siRNA binding with platinum species by AAS; conditions: by 3 h of incubation
# Experimental: A double-stranded RNA (sense: […]-ATT; antisense: […]-[…]) was mixed with OxaPt(II) at a molar ratio of 1:10 in RNAase free water (RNA final concentration: 5 μM; Pt final concentration at 50 μM; total volume of 100 μL). […] The RNA was then isolated using a centrifugation separation device (molecular cut-off 3000 Da, spun at 10,000 rpm; Nanosep®3k, Pall Corporation, USA). Five wash cycles with RNAase free water (5×100 μL) then ensued. An aliquot of 2 μL from each sample was obtained for optical density (OD) measurements in order to quantify the concentration of RNA in the original sample, using a NanoDrop reader. The remainder of each sample was diluted in 3% HNO3 for Pt content measurement via AAS. The experiments were performed in triplicate and data are presented such that the concentration of Pt-RNA adducts at each time point are expressed as “μmol Pt/μmol RNA”. Analogous methods were employed to obtain similar values for the numbers of Pt-RNA adducts formed by the reaction of siRNA with OxaPt(IV), CisPt(II) or CisPt(IV) at similar time points.
# MALDI/TOF MS was used to ascertain the kinetics of platinum-RNA adduct formation using BCL-2 siRNA that was incubated with a 10-fold excess of various platinum(II) or platinum(IV) species. […]
# A2780 cells = assay: MTT cytotoxicity; format: cell-based; conditions: platinum concentration
# OVCAR4 cells = assay: MTT cytotoxicity; format: cell-based; conditions: platinum concentration
# MCF-7 cells [3] = assay: Pt-DNA adducts in cells; format: cell-based; conditions: 24 h after treatment
# Experimental: FIG. 19B is a bar graph showing the total number of Pt-DNA adducts (pg Pt/μg DNA) as assessed after 24 h of incubation with each treatment group, as defined in the description of FIG. 19A. DNA was isolated after cellular lysis and the content of DNA-bound Pt was determined by ICP-MS. Experiments were performed in triplicate. […] IC50 values were derived from three independent experiments each with four technical replicates per condition. […] In all cases, significance is defined as *p<0.05, **p<0.01, and ***p<0.001.
# Atomic absorption spectroscopy (generation 8.0, Perkin Elmer) was used to study the kinetics of siRNA platination and to determine the platinum content in all micellar formulations. Inductively coupled plasma mass spectrometry (ICP-MS, Xseries II, Thermo scientific, USA) was used for quantitative determination of trace levels of platinum in cancer cells and to quantify Pt-DNA adduct formation. Sizes and distributions of micelles were determined by dynamic light scattering (DLS) with a vertically polarized He—Ne laser (DAWN EOS, Wyatt Technology, USA). The size and morphologies of the micelles very visualized using a JEOL JEM-1011 electron microscope. Particle size and zeta potential measurements were conducted on a Malvern Zetasizer Nano ZS90. Micelles were prepared by directly dissolving various modified triblock copolymers in water at 0.5 mg/mL.
# MCF-7 cells [4] = assay: Intracellular platinum uptake; format: cell-based
# Experimental: FIG. 19A is a bar graph showing platinum uptake (μg Pt/cell) for various compositions. […] Experiments were performed in triplicate. […] IC50 values were derived from three independent experiments each with four technical replicates per condition.
# MCF-7 cells were seeded in 12-well plates at a density of 10^5 cells per well and incubated overnight in 1 mL of DMEM containing 10% FBS. […]
# MCF-7 cells [5] = assay: MTT cytotoxicity; format: cell-based; conditions: platinum concentration, siRNA 100 nM
# Experimental: In vitro Cytotoxicity Measurements. MCF-7 cells were seeded in 96-well plates at a density of 1×10^4 cells/well. 100 μL of DMEM supplemented with 10% FBS were added to each well and the cells were incubated at 37° C. for 24 h. […] All experiments were conducted in triplicate.
# A2780DDP cells = assay: MTT cytotoxicity; format: cell-based; conditions: platinum concentration
compound,measurement,setting,value
"N.N.[Cl][Pt][Cl] [CisPt(II), cisplatin]",formation of Pt(NH3)2(5′-GMP)2 adducts,5′-GMP; data not shown,Similarly rapid formation and time dependent increases
same,time at which Pt-siRNA adducts could be detected,BCL-2 siRNA [1],≤ 30 m
"O=C1[O][Pt]2([NH][C@@H]3CCCC[C@H]3[NH]2)[O]C1=O [OxaPt(II), Oxaliplatin]",siRNA transcripts platinated,BCL-2 siRNA [2],> 50%
same,"DACHPt(5′-GMP)2 adducts, share of the 5′-GMP pool","5′-GMP; 30 m incubation, 10 mM 5′-GMP, 5 mM Pt, 37° C.",approximately 10%
same,"DACHPt(5′-GMP)2 adducts, share of the total 5′-GMP pool","5′-GMP; over the first 6 h, 10 mM 5′-GMP, 5 mM Pt, 37° C.",> 40%
same,IC50,A2780 cells,2.9 ± 0.28 µM
same,IC50,OVCAR4 cells,15.5 ± 0.5 µM
same,Pt-DNA adducts After 24 h,MCF-7 cells [3],41.10 ± 9.84 ng Pt/μg DNA
same,Platinum uptake 1 h,MCF-7 cells [4]; 1 h,369 ± 24 pg Pt/cell (×10^−4)
same,Platinum uptake 4 h,MCF-7 cells [4]; 4 h,535 ± 16 pg Pt/cell (×10^−4)
same,IC50,MCF-7 cells [5],23.1 ± 0.25 µM
same,time at which Pt-siRNA adducts could be detected,BCL-2 siRNA [1],1 h
same,IC50,A2780DDP cells,18.8 ± 0.99 µM
